This is an account of results in patent US5827655A (priority 1995, dated 1998).

pIC50, pKd: −log10 of the molar value.

Assay [1] concerns type n K+ channel (human). The note with it: Table I, type n currents, human T cells; read-out: Blockers, half-blocking dose; cited from earlier work.
Assay [2] relates to type n K+ channel (mice). The note with it: Table I, type n currents, mouse T cells; read-out: Blockers, half-blocking dose; cited from earlier work.
Assay [3] has as its target T1, MK3 K+ channels (Mus musculus, UniProt P16390).
T1 construct: The MK3 coding region was inserted into the pSP64T cloning vector; expressed in transfected cells; host or cells: Xenopus oocytes injected with MK3 mRNA (in vitro transcript from pSP64T)
The experiment in a line: cell-based.

T1 sequence (P16390 whole entry): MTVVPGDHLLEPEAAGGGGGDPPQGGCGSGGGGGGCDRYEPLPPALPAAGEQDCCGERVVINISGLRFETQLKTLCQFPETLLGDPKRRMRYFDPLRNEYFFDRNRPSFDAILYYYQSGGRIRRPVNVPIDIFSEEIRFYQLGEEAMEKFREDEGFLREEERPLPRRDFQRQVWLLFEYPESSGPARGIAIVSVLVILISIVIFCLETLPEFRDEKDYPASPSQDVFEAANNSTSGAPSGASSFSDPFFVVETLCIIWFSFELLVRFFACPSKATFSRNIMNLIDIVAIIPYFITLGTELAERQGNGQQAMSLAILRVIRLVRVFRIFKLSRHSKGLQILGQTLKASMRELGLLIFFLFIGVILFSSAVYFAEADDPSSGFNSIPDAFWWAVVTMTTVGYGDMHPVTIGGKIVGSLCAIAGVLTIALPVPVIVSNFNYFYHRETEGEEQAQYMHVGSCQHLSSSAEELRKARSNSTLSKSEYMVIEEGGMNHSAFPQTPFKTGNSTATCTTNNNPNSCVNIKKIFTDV

On to `Nc1ccncc1` [4-AP, 4-aminopyridine], for which the figures for the pIC50 in assay [1] and in assay [2] were 3.72 and […], respectively.
In general, pKd refers to the negative decadic logarithm of the Kd, by convention in mol/L. In the case of `CC[N+](CC)(CC)CC` [TEA, tetraethylammonium], the pKd in assay [3] (FIG. 3C, outside-out patch, oocyte injected with MK3 mRNA, read-out: Kd, dose-response curve of drugs blocking MK3 K+ current) was 1.96. In assay [3] (Table I, MK3 currents in oocytes, read-out: Blockers, half-blocking dose), the pIC50 was 1.96.
As to Charybdotoxin [CTX], the “Block of MK3 channels in oocytes (in words)” value in assay [3] (CTX from both sources (C. Miller and M. Garcia)) is recorded as “blocked MK3 channels in oocytes”.
